Tested on: potato 5-Lipoxygenase enzyme
Test: Lipoxygenase Inhibitor Screening Assay Kit (Cayman) with potato 5-Lipoxygenase
Assay type: biochemical
Conditions: positive control at 100 μM
Experimental: Research grade reagents were used for the rest of the assay preparations. Extracts were dissolved in dimethyl sulfoxide (‘DMSO’) to a final concentration of 50 mg/mL, and then diluted in appropriate buffer for each bioassay to working concentrations.
This kit measures hydroperoxides produced in the lipoxygenation reaction.
The extracts were dissolved in methanol to final working concentrations. 5-LOX enzyme, Chromagen, and Linoleic Acid solutions were prepared immediately before use. Nordihydroguaiaretic acid (‘NDGA’) was used as a positive control. 5-LOX enzyme was added to the test samples and controls and incubated for five minutes at room temperature to allow for enzyme/inhibitor interaction. Linoleic acid substrate was added to the plate to initiate the reaction, and the plate was then shaken at room temperature for 10 minutes. Chromagen was added to visualize the hydroperoxides formed during the reaction and the plate was shaken at room temperature for another five minutes. The absorbance was then read at 492 nm. Percent inhibition of the extract concentration was calculated in comparison to the uninhibited control wells.

Question: CC(Cc1ccc(O)c(O)c1)C(C)Cc1ccc(O)c(O)c1 (stereo not shown) [NDGA, Nordihydroguaiaretic acid] was tested. Which 5-LOX enzyme inhibition did it give?
Answer: 100%

— US11311590B2, “Anti-inflammatory botanical extract” (Innophos, Inc., priority 2018, dated 2022)
